The results in this text go back to the METLIN SMRT retention time set (Domingo-Almenara et al. 2019).

The data set is described as follows: gradient 5% acetonitrile 3 min, to 50% in 2 min, to 85% in 15 min, held 3 min, 100 µL/min. The settings on record: column: Zorbax Extend-C18 2.1 x 50 mm; eluents: water / acetonitrile, 0.1% formic acid. The method in brief:
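Over 3 months, pure standards in mixtures of ~100 molecules were run by HPLC coupled to a quadrupole time-of-flight mass spectrometer in positive and negative ionization mode. The column was a Zorbax Extend-C18 (2.1 × 50 mm, 1.8 μm) at 100 μL/min, eluted with water and acetonitrile each holding 0.1% formic acid, with 40 μL dead and 900 μL dwell volumes. Retention time was determined from adduct peaks chosen by software and checked manually.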
With `O=C(NCc1cc(F)cc(F)c1)c1ccnc(N2CCNC(c3ccccc3)C2)c1` (stereo not given), the RP-LC retention time was found to be 661 s.

`Cc1ccc(-n2c(C)c(C)c3c(=O)n(CC(=O)NC4CC4)cnc32)cc1` gave an RP-LC retention time of 769 s.

For `Cc1ccc(C2Cn3nnc(C(=O)N4CCN(C(=O)c5ccco5)CC4)c3CO2)cc1` (stereo not given), the RP-LC retention time is 844 s.

In the case of `O=S(=O)(c1cccc2nsnc12)N1CCc2nc(-c3ccccc3)ncc2C1`, the RP-LC retention time was 1000 s.

Compound `CCOCCCNC(=O)c1ccc2c(c1)nc1n2CCCCC1` returned an RP-LC retention time of 588 s.

In turn, `COc1ccc2c(c1)C1CC(C)(NC(=O)C1C(=O)c1ccccc1)O2` (stereo not given) gave an RP-LC retention time of 758 s.

Regarding `CCN(CC)c1nc(C(=O)Nc2ccc(C(C)=O)cc2)nc2nc(C)cc(C)c12`, the RP-LC retention time turned out to be 679 s.

`CCN(CC)C(=O)c1ccc(-c2nc3cc(NS(=O)(=O)c4ccc(C)c(C)c4)ccc3n2C)cc1` had an RP-LC retention time of 726 s.

In turn, `O=C(Nc1cccc(Cl)c1F)C1CC(=O)N(c2ccc3c(c2)CCN3C(=O)C2CC2)C1` (stereo not given) returned an RP-LC retention time of 831 s.

`CCOC(=O)c1cc(S(=O)(=O)N2CCCC2C(=O)Nc2ccc3c(c2)OCO3)cn1C` (stereo not given) showed an RP-LC retention time of 876 s.

Turning to `Cc1ccc(N2CCC(NC(=O)Nc3cccc(C)c3C)C2=O)cc1` (stereo not given), the RP-LC retention time turned out to be 945 s.

With `C[C@H](NC(=O)C1CCCN(S(=O)(=O)c2ccc(F)cc2)C1)C(=O)O` (stereo not given in full), the RP-LC retention time worked out at 669 s.

The compound `Cc1ccc(S(=O)(=O)Nc2cccc(-c3nc4ncccn4c3C)c2)cc1` gave an RP-LC retention time of 670 s.

`Cc1cnn(Cc2nc(-c3ccc(NC(=O)C4CCCCC4)cc3)oc2C)c1` displayed an RP-LC retention time of 881 s.

For the compound `CCOC(=O)C1CCN(C(=O)CCc2nc(-c3ccc(N4CCCC4)cc3)no2)CC1`, the RP-LC retention time was 1030 s.

For `CCn1cc2c3c(cccc31)CN(C(=O)Nc1cccc(C)c1)CC2`, the RP-LC retention time was found to be 1050 s.

In the case of `CC(C)C(=O)NCc1csc(C2CCN(C(=O)C3(c4ccccc4)CC3)CC2)n1`, the RP-LC retention time is 740 s.

For `Cc1ccc(Nc2c(-c3nc(C)no3)cnc3nc(C)ccc23)cc1`, the RP-LC retention time was 750 s.

For the compound `O=C(Nc1cccc(-c2cn3c(n2)SCC3)c1)c1cc(-c2ccco2)on1`, the RP-LC retention time turned out to be 667 s.

Regarding `COCc1nc2cccnc2n1C1CCN(C(=O)Nc2ccccc2Br)CC1`, the RP-LC retention time was found to be 724 s.

Take `CCOc1ccc(NC(=O)Nc2c(-c3cccc(C)c3)nc3ccccn23)cc1`: the RP-LC retention time turned out to be 697 s.

Take `COc1ccc(NC(=O)c2noc3c2CCCCC3)cc1OC`: the RP-LC retention time was determined as 907 s.

The compound `COc1ccc(NC(=O)c2cn(-c3cc(N4CCCC4)ncn3)cn2)c(OC)c1` displayed an RP-LC retention time of 891 s.

The compound `CS(=O)(=O)N(C1CCOCC1)C1CN(C(=O)COc2ccccc2)C1` yielded an RP-LC retention time of 692 s.

The compound `CCc1cc(=O)n(CC(=O)Nc2ccccc2F)c(N2CCOCC2)n1` returned an RP-LC retention time of 711 s.

As to `COC(=O)c1c(NC(=O)c2cnn(-c3ccccc3)c2C)sc2c1CCN(C(C)=O)C2`, the RP-LC retention time is 812 s.

`Cc1cc2nc(C(=O)Nc3ccc(F)c(C)c3)cc(C)n2n1` returned an RP-LC retention time of 1010 s.

In turn, `CNC(=O)[C@@H]1C[C@H](Oc2ccccc2)CN1C(=O)c1ccco1` gave an RP-LC retention time of 670 s.

In turn, `CCOc1ccc(Cl)cc1S(=O)(=O)N1CCC(C(=O)NCCOC)CC1` had an RP-LC retention time of 753 s.

The compound `O=C(Nc1ccc2c(c1)OCCO2)N1CC2(CCCCC2)CC1COc1ccncc1` (stereo not given) registered an RP-LC retention time of 604 s.

Consider `Cc1ccc(N2CC(c3noc(-c4ccccn4)n3)CC2=O)cc1` (stereo not given), for which the RP-LC retention time is 797 s.

The compound `COc1ccc(C(=O)NC(CC(C)C)C(=O)Nc2nc3ccccc3[nH]2)cc1` (stereo not given) had an RP-LC retention time of 725 s.

`COc1ccc(N2CCN(C(=O)c3[nH]c(C)c(S(=O)(=O)N4CCC(C)CC4)c3C)CC2)cc1` had an RP-LC retention time of 896 s.

Compound `CN1Cc2ccccc2-n2ccnc2C12CCN(C(=O)NC1CCCCC1)CC2` yielded an RP-LC retention time of 611 s.

In turn, `CCOC(=O)c1ccc(NC(=O)NCc2noc3ccc(C)cc23)cc1` returned an RP-LC retention time of 944 s.

For the compound `O=C(CCNc1c(-c2ccc(F)cc2)nc2cnccn12)N1CCCCC1`, the RP-LC retention time was 730 s.

For the compound `O=S(=O)(Cc1ccccc1)N1CCC(c2noc(COCc3ccccc3)n2)CC1`, the RP-LC retention time turned out to be 1060 s.

In turn, `O=C(Cc1cccs1)N1CCc2c([nH]c3ccccc23)C1c1ccc(Cl)cc1` (stereo not given) displayed an RP-LC retention time of 1220 s.

`Cc1nnc2ccc(-c3noc(-c4cccc(F)c4)n3)cn12` gave an RP-LC retention time of 881 s.

`COCCC(=O)NC1CCN(C2=NS(=O)(=O)C(c3ccc(C(C)C)cc3)=C2C)CC1` came in with an RP-LC retention time of 813 s.

Compound `COCCCNC(=O)C1c2ccccc2C(=O)N(C2CCCC2)C1c1cccs1` (stereo not given) displayed an RP-LC retention time of 836 s.

As to `CCC(=O)N1CCc2cc(N3CC(C(=O)Nc4ccccc4OC)CC3=O)ccc21` (stereo not given), the RP-LC retention time came to 758 s.

As to `COc1ccc(C)c(N2C(=O)CC(N3CCC(C(N)=O)CC3)C2=O)c1` (stereo not given), the RP-LC retention time is 586 s.

In turn, `COc1ccc(NC(=O)c2cc(C)n3nc(-c4ccco4)cc3n2)c(OC)c1` yielded an RP-LC retention time of 1100 s.

Turning to `CCOC(=O)Cn1c(C2CC(=O)N(c3ccc(OC)cc3)C2)nc2ccccc21` (stereo not given), the RP-LC retention time was determined as 762 s.

In the case of `COCc1c(C(=O)O)nnn1-c1ccc(C)cc1F`, the RP-LC retention time came to 722 s.

For `Cc1[nH]c(C(=O)Nc2ccccc2)c(C)c1S(=O)(=O)N1CCCCC1`, the RP-LC retention time was 925 s.

As to `Cc1ccc(NC(=O)c2cc3c(=O)n(C)c4ccccc4n3n2)cc1F`, the RP-LC retention time was 975 s.

On to `O=C(Nc1ccccc1)C1CC(=O)N(c2ccc3c(c2)CCN3C(=O)C2CCC2)C1` (stereo not given), for which the RP-LC retention time came out at 792 s.

`CC(C)Cn1c(=O)c(C(=O)NC2CCCC2)nc2cccnc21` showed an RP-LC retention time of 936 s.

Regarding `COc1ccc(NC(=O)CN2CCC(c3nc(-c4cccs4)no3)CC2)cc1`, the RP-LC retention time stood at 670 s.

Turning to `Cc1cccc(C)c1NC(=O)Cn1cnc2nc(N3CCCC(C(=O)NC4CC4)C3)sc2c1=O` (stereo not given), the RP-LC retention time was 678 s.

Consider `Cc1noc(CNC(=O)c2cc(-c3cccs3)[nH]n2)n1`, for which the RP-LC retention time amounted to 641 s.

For the compound `COc1cccc(CNC(=O)NCCc2nc3cccnc3n2Cc2ccccc2)c1`, the RP-LC retention time worked out at 723 s.

With `CN(C)C(=O)c1ccc2c(c1)N(CC(=O)NCCCN1CCCC1=O)C(=O)C1CCCCN21` (stereo not given), the RP-LC retention time stood at 619 s.

Regarding `COC(=O)C1=C(C)N(C(C)C)C(=O)C1(NC(=O)c1cccc(OC)c1)C(F)(F)F` (stereo not given), the RP-LC retention time came out at 917 s.

`COC(=O)c1c(C)[nH]c(C(=O)N2CCCC(C(=O)NC3CC3)C2)c1C` (stereo not given) registered an RP-LC retention time of 627 s.

Regarding `CC1CCN(c2cc(-n3cnc(C(=O)NCC4CCCO4)c3)ncn2)CC1` (stereo not given), the RP-LC retention time was found to be 819 s.

Compound `CCc1ccc(N(CC)C(=O)Cn2cnc3nc4c(cc3c2=O)CCCC4)cc1` returned an RP-LC retention time of 885 s.

`COc1cc(-c2nc3ncccn3c2NCc2ccc(C)cc2)ccc1OC(C)C`: the RP-LC retention time was 811 s.

`O=C(NC1CC1)C1CCCN(c2ncnc3c2nc2n3CCCCC2)C1` (stereo not given): the RP-LC retention time was 622 s.

Turning to `O=C(C1CCC1)N1CCCC1c1nc(-c2cccc(Cl)c2)no1` (stereo not given), the RP-LC retention time came out at 1060 s.

`O=C(CN1CC=C(c2cnn(-c3ccccc3)c2)CC1)N1CCN(c2ccccn2)CC1` returned an RP-LC retention time of 567 s.

With `O=C(O)CC1(CC(=O)Nc2nc(-c3cccc4ccccc34)cs2)CCCC1`, the RP-LC retention time came out at 1040 s.

In turn, `Cc1ccc2nc3c(c(C(=O)NC4CC4)c2c1)CCCC3` showed an RP-LC retention time of 584 s.

In turn, `Cn1c(=O)c(=O)n(C)c2cc(N3CCCC3)c(NC(=O)Cc3ccccc3Cl)cc21` came in with an RP-LC retention time of 793 s.

In the case of `CCn1cc(-c2ccccc2)cc1C(=O)NCC(C)C`, the RP-LC retention time stood at 1070 s.

The compound `COc1cc(C(=O)Nc2nc(-c3ccc(F)cc3)cs2)cc(OC)c1OC` returned an RP-LC retention time of 1040 s.

`CC(=O)Nc1ccc(S(=O)(=O)NCC2CCN(Cc3cccs3)CC2)c(C)c1`: the RP-LC retention time turned out to be 547 s.

`CCOc1cc(=O)n2c(c1C(=O)NCCCOC(C)C)CCCCC2` showed an RP-LC retention time of 646 s.

`CCOc1ccc(C2Cn3nnc(-c4nc(-c5ccccn5)no4)c3CO2)cc1` (stereo not given): the RP-LC retention time is 921 s.

As for `CCCOc1nc2ccccc2nc1N1CCCC(C(=O)Nc2c(Cl)cc(OC)cc2OC)C1` (stereo not given), the RP-LC retention time stood at 1370 s.

`Cc1ccccc1NS(=O)(=O)c1cc2c3c(c1)CCC(=O)N3CCC2` showed an RP-LC retention time of 967 s.

In turn, `Cn1cccc1C(=O)C(=O)Nc1ccc2c(c1)OCCO2` displayed an RP-LC retention time of 842 s.

`COc1cccc(OC)c1CN1C[C@@H](CO)[C@H](c2ccncc2)C1` displayed an RP-LC retention time of 500 s.

The compound `Clc1cccc(Cc2nc(-c3ccc4nncn4c3)no2)c1` came in with an RP-LC retention time of 827 s.

Turning to `CONC(=O)Cc1csc(Nc2cc(C)ccn2)n1`, the RP-LC retention time came to 526 s.

`CC(C)C(NC(=O)c1ccsc1)C(=O)Nc1nc2ccccc2[nH]1` (stereo not given) returned an RP-LC retention time of 666 s.

Consider `Cc1cnc(C(=O)N2CCC(n3c(C)cnc3C3CCC3)C2)cn1` (stereo not given), for which the RP-LC retention time was 560 s.

Compound `O=C(Cn1ncc2c(N3CCN(c4ccccn4)CC3)ncnc21)Nc1ccc(Cl)cn1` showed an RP-LC retention time of 616 s.
